Laboratory results: patent EP1074259A1, “PREVENTIVES FOR ALCOHOLIC GASTRITIS” (CHUGAI SEIYAKU KABUSHIKI KAISHA, priority 1998, dated 1999)

System: ethanol-induced gastric mucosal injury
Experiment: Prevention of 99.5% ethanol-induced gastric mucosal injury in rats
Assay type: in vivo
Settings: for Mucosal injury suppression rate (%): 1 h before 99.5% ethanol 1 ml/animal, n = 10/group
Description: Rats were forced to abstain from food and water for 24 hours, and used as experimental subjects. […] When the two drugs were combined, the dose of the combination treatment was set such that the proportion of sucralfate was 1/3 of the dose, and the proportion of famotidine was 2/3 of the dose, or vice versa (i.e., the proportion of sucralfate was 2/3 of the dose, and the proportion of famotidine was 1/3 of the dose). For each of the individual treatments and the combination treatments, a high dose group, a medium dose group, and a low dose group were provided by setting a high dose, a medium dose, and a low dose at a ratio of 9:3:1. Each dose level of the drug was suspended in a 2% aqueous solution of acacia. The suspension was orally administered in a volume of 2 ml/kg body weight, while only the solvent was administered in the same volume for a control group. […] One hour after administration of the test drug, 99.5% ethanol in an amount of 1 ml/animal was administered orally. One hour later, the animal subjects were sacrificed and the stomach removed, treated, and measured for the extent of injuries occurring in the gastric mucosa. The total amount of injuries occurring In the respective animals was calculated to determine the ED50 values for the preventive effect of the test drug on gastric mucosal injury. […]

Molecule | ED50 (Rattus norvegicus, po, drug administered alone, P.O., rats, read-out: 50% preventive dose ED50) [mg/kg] | Mucosal injury suppression rate (%) (famotidine alone 10 mg/kg P.O.) | Mucosal injury suppression rate (%) (famotidine alone 30 mg/kg P.O.) | Mucosal injury suppression rate (%) (famotidine alone 90 mg/kg P.O.) | 50% preventive dose ED50 (mg/kg) (drug administered alone, P.O., rats) | Mucosal injury suppression rate (%) (sucralfate alone 10 mg/kg P.O.) | Mucosal injury suppression rate (%) (sucralfate alone 30 mg/kg P.O.) | Mucosal injury suppression rate (%) (sucralfate alone 90 mg/kg P.O.)
NC(N)=Nc1nc(CSCCC(N)=NS(N)(=O)=O)cs1 [Famotidine, famotidine] | 46.3 | 13 | 42 | 66 | – | – | – | –
sucralfate | – | – | – | – | Sucralfate 21.4 mg/kg | 19 | 69 | 92
